In patent US11203577B2, “Sulfonyl-structure-containing triazinone derivatives, their preparation methods and their uses in insect killing and/or bacterium killing” (Nankai University, priority 2017, dated 2021):
Where two headings read alike, the source gives them in different places.

Key:
Rice bakanae disease = assay: In vitro fungicidal activity, PDA colony diameter; format: cell-based; conditions: read-out: Fungicidal activity (%) Rice bakanae disease
Wheat head blight = assay: whole plant or invertebrate; format: cell-based; conditions: Triticum aestivum, read-out: Fungicidal activity (%) Wheat head blight
Tomato early blight = assay: In vitro fungicidal activity, PDA colony diameter; format: cell-based, Alternaria solani; conditions: 50 mg/kg, inhibition of colony diameter; read-out: Fungicidal activity (%) Tomato early blight
[1] = system: bean aphides (Aphis laburni Kaltenbach); assay: Test of insecticidal activity against aphides (leaf immersion, checked after 96 h)
Procedure: The insecticidal activity against aphides is tested through the following steps: the tested aphides are bean aphides (Aphis laburni Kaltenbach), a normal colony fed with broad bean leaves in a laboratory. The pesticide is weighed, 1 mL DMF is added to dissolve the pesticide, then two drops of emulsifier, Tween-20 are added, and distilled water is added in an appropriate amount; the mixture is stirred to a homogeneous state to prepare pesticide solution at required concentration (see the following table for the specific concentration). […] In a control group, only emulsifier and solvent are added into distilled water, and the mixture is stirred to a homogeneous state.

Sclerotinia rot of colza = assay: In vitro fungicidal activity, PDA colony diameter; format: cell-based; conditions: 96 h, 50 mg/kg, inhibition of colony diameter, read-out: Fungicidal activity (%) Sclerotinia rot of colza
Rice sheath blight = assay: In vitro fungicidal activity, PDA colony diameter; format: cell-based; conditions: 50 mg/kg, inhibition of colony diameter; read-out: Fungicidal activity (%) Rice sheath blight
Apple ring rot = assay: In vitro fungicidal activity, PDA colony diameter; format: cell-based; conditions: inhibition of colony diameter
Outline: (§1)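 Percent growth inhibition derived from colony diameter versus compound-free PDA control after 4 days' culture. Plates contained compound at 50 mg/kg; inoculum was a plug taken from the periphery of a 7-day PDA culture.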

[2] = system: Capsicum phytophthora blight; assay: In vitro fungicidal activity, PDA colony diameter; format: cell-based; conditions: 96 h
Outline: as §1

Potato late blight = assay: microbe, parasite or virus in culture; format: cell-based; conditions: Phytophthora infestans, 96 h, read-out: Fungicidal activity (%) Potato late blight
[3] = system: mosquito larvae (Culer pipiens pallens); assay: Test of insecticidal activity against mosquito larvae (checked after 24 h); conditions: 24 h, read-out: Mortalities (%) against mosquito larvae
Watermelon anthracnose = assay: In vitro fungicidal activity, PDA colony diameter; format: cell-based; conditions: read-out: Fungicidal activity (%) Watermelon anthracnose
Cotton bollworms = assay: Test of insecticidal activity against cotton bollworms (pesticide mixed into feedstuff); conditions: read-out: Mortalities (%) Cotton bollworms
Procedure: Method of testing against cotton bollworms: the pesticide is mixed into the feedstuff, i.e., 3 mL prepared solution is added into about 27 g freshly prepared feedstuff; thus, required concentration is obtained by diluting by 10 times.

Maize borers = assay: Test of insecticidal activity against maize borers (leaf immersion); conditions: read-out: Mortalities (%) Maize borers
Armyworms = assay: Test of insecticidal activity against armyworms (leaf immersion); conditions: 600 mg/kg, 3-4 days
[4] = system: Corn southern leaf blight; assay: In vitro fungicidal activity, PDA colony diameter; format: cell-based; conditions: 50 mg/kg, inhibition of colony diameter; read-out: Fungicidal activity (%) Corn southern leaf blight
Wheat sheath blight = assay: In vitro fungicidal activity, PDA colony diameter; format: cell-based; conditions: 50 mg/kg, inhibition of colony diameter; read-out: Fungicidal activity (%) Wheat sheath blight
[5] = system: Cercospora brown spot of peanut; assay: In vitro fungicidal activity, PDA colony diameter; format: cell-based; conditions: 96 h, 50 mg/kg, inhibition of colony diameter, read-out: Fungicidal activity (%) Cercospora brown spot of peanut
Cucumber fusarium wilt = assay: In vitro fungicidal activity, PDA colony diameter; format: cell-based; conditions: 96 h, 50 mg/kg, inhibition of colony diameter, read-out: Fungicidal activity (%) Cucumber fusarium wilt
[6] = Aphis, 96 h, read-out: Mortalities (%) against aphides
[7] = 50 mg/kg, inhibition of colony diameter

| SMILES | inhibition at 50 mg/kg (Wheat head blight) [%] | inhibition at 50 mg/kg (Tomato early blight) [%] | mortality at 10 mg/kg [1, 6] [%] | mortality at 100 mg/kg [1, 6] [%] | mortality at 600 mg/kg [1, 6] [%] | inhibition of growth at 50 mg/kg (Sclerotinia rot of colza) [%] | inhibition at 50 mg/kg (Rice sheath blight) [%] | inhibition at 50 mg/kg (Apple ring rot) [%] | inhibition of growth at 50 mg/kg [2] [%] | inhibition of growth at 50 mg/kg (Potato late blight) [%] | mortality at 10 mg/kg [3] [%] | mortality at 600 mg/kg (Cotton bollworms) [%] | mortality at 600 mg/kg (Maize borers) [%] | Mortalities (%) Armyworms (Armyworms) [%] | inhibition at 50 mg/kg [4] [%] | inhibition at 50 mg/kg (Wheat sheath blight) [%] | inhibition of growth at 50 mg/kg [5] [%] | inhibition of growth at 50 mg/kg (Cucumber fusarium wilt) [%] | inhibition at 50 mg/kg (Rice bakanae disease; [7]) [%] | inhibition at 50 mg/kg (Watermelon anthracnose; [7]) [%] | further results |
| --- | --- | --- | --- | --- | --- | --- | --- | --- | --- | --- | --- | --- | --- | --- | --- | --- | --- | --- | --- | --- | --- |
| CC1=NNC(=O)N(NS(=O)(=O)c2cn(C)c(C)n2)C1 [Ia-32, 1,2-dimethyl-N-(6-methyl-3-oxo-2,3-dihydro-1,2,4-triazin-4(5H)-yl)-1H-imidazolyl-4-sulfonamide] | 12.5 | 16.1 | 30 | 100 | 100 | 15.8 | 10.5 | 43.1 | 9.4 | 18.8 | 20 | 0 | 0 | 5 | 7.7 | 30.9 | 26.1 | 8.8 | – | – | inhibition at 50 mg/kg (Rice bakanae disease): 18.8%; inhibition at 50 mg/kg (Watermelon anthracnose): 18.8% |
| CC1=NNC(=O)N(NS(=O)(=O)c2ccc3c(c2)CCO3)C1 [Ia-33, N-(6-methyl-3-oxo-2,3-dihydro-1,2,4-triazin-4(5H)-yl)-2,3-dihydrobenzofuran-5-sulfonamide] | 33.3 | 15 | – | 40 | 90 | 12.5 | 10.7 | 9.5 | 19.2 | 19 | 85 | 0 | 0 | 5 | 11.1 | 9.4 | 11.5 | 5.1 | 3.7 | 0 | – |
| CC1=NNC(=O)N(NS(=O)(=O)c2ccc3c(c2)OCCO3)C1 [Ia-34, N-(6-methyl-3-oxo-2,3-dihydro-1,2,4-triazin-4(5H)-yl)-2,3-dihydrobenzo[b][1,4]dioxin-6-sulfonamide] | 10.9 | 16.1 | – | 35 | 90 | 6.6 | 4.7 | 39.2 | 18.8 | 3.1 | 15 | 10 | 10 | 15 | 10.3 | 36.8 | 13 | 8.8 | 12.5 | – | inhibition at 50 mg/kg (Watermelon anthracnose): 18.8% |
| CC1=NNC(=O)N(N(S(C)(=O)=O)S(C)(=O)=O)C1 [Ib-1, N-(6-methyl-3-oxo-2,3-dihydro-1,2,4-triazin-4(5H)-yl)-N-(methylsulfonyl)-methylsulfonylamide] | 6.7 | 23.8 | 100 | 100 | 100 | 36.7 | 34.9 | 20.7 | 26.5 | 29.6 | 35 | 30 | 10 | 15 | 12.5 | 56.8 | 15.8 | 0 | 44.4 | 20.8 | insecticidal activity against aphides compared with pymetrozine ([1]; 5 mg/kg): equivalent to the insecticidal activity of pymetrozine; mortality at 5 mg/kg [1, 6]: 20% |
| CCS(=O)(=O)N(N1CC(C)=NNC1=O)S(=O)(=O)CC [Ib-2, n-(ethylsulfonyl)-N-(6-methyl-3-oxo-2,3-dihydro-1,2,4-triazin-4(5H)-yl)-ethylsulfonamide] | 13.3 | 33.3 | – | – | 85 | 48.3 | 27 | 58.6 | 38.8 | 18.5 | 15 | 25 | 5 | 5 | 16.7 | 61.4 | 15.8 | 10 | 27.8 | 12.5 | – |
| CCCS(=O)(=O)N(N1CC(C)=NNC1=O)S(=O)(=O)CCC [Ib-3, N-(6-methyl-3-oxo-2,3-dihydro-1,2,4-triazin-4(5H)-yl)-N-(n-propylsulfonyl)propyl-1-sulfonamide] | 10 | 0 | – | – | 75 | 40 | 38.1 | 17.2 | 26.5 | 22.2 | 25 | 5 | 10 | 10 | 20.8 | 52.3 | 15.8 | 0 | 38.9 | 25 | – |
| CCCCS(=O)(=O)N(N1CC(C)=NNC1=O)S(=O)(=O)CCCC [Ib-4, N-(n-butylsulfonyl)-N-(6-methyl-3-oxo-2,3-dihydro-1,2,4-triazin-4(5H)-yl)-butyl-1-sulfonamide] | 3.3 | 19 | – | – | 90 | 43.3 | 27 | 27.6 | 34.7 | 33.3 | 75 | 45 | 10 | 15 | 20.8 | 65.5 | 15.8 | 20 | 50 | 29.2 | – |
| CC1=NNC(=O)N(N(S(=O)(=O)c2ccc(C)cc2)S(=O)(=O)c2ccc(C)cc2)C1 [Ib-6, 4-methyl-N-(6-methyl-3-oxo-2,3-dihydro-1,2,4-triazin-4(5H)-yl)-N-(4-methylbenzenesulfonyl)benzenesulfonamide] | 13.3 | 23.8 | 30 | 80 | 100 | 15 | 50.8 | 27.6 | 26.5 | 22.2 | 35 | 15 | 15 | 15 | 16.7 | 56.8 | 15.8 | 0 | – | 29.2 | inhibition at 50 mg/kg (Rice bakanae disease): 22.2% |
